Structures are written as SMILES. Where a name gives a salt, the structure may show the parent alone.

For 25 compounds, melting point results are on record in patent publication US7291641B2, “Derivatives of heterocycles with 5 members, their preparation and their use as medicaments” (Societe de Conseils de Recherches et d'Applications …, priority 1999, dated 2007).

The term melting point denotes the temperature of the solid-liquid transition. With `CN(Cc1ccccc1)[C@H](Cc1c[nH]c2ccccc12)c1nc(-c2ccccc2)c[nH]1` [Example 46, (1R)-N-benzyl-2-(1H-indol-3-yl)-N-methyl-1-(4-phenyl-1H-imidazol-2-yl)ethanamine], the melting point was 110 to 112 °C.
As for `NCCCc1nc(-c2ccc(F)cc2)c[nH]1` (as salt: hydrochloride) [Example 343, 3-[4-(4-fluorophenyl)-1H-imidazol-2-yl]propan-1-amine], the figure is 245 to 246 °C.
As for `FC(F)(F)c1ccc(-c2c[nH]c([C@@H](NC3CCCCC3)C3CCCCC3)n2)cc1` (as salt: hydrochloride) [Example 296, N-((S)-cyclohexyl{4-[4-(trifluoromethyl)phenyl]-1H-imidazol-2-yl}methyl)cyclohexanamine], the figure is 214.1 °C; as for `O=C(NCCc1nc(-c2ccc(-c3ccccc3)cc2)c[nH]1)OCCc1ccccc1` [Example 391, 2-phenylethyl 2-[4-(1,1′-biphenyl-4-yl)-1H-imidazol-2-yl]ethylcarbamate], 142 to 143 °C; as for `c1[nH]c([C@@H](NC2CCCCC2)C2CCCCC2)nc1C1CCCCC1` (as salt: hydrochloride) [Example 82, N-[(S)-cyclohexyl(4-cyclohexyl-1H-imidazol-2-yl)methyl]-cyclohexanamine], 180 to 182 °C.
The same measure for `Fc1ccc(-c2c[nH]c([C@@H](NCC3CCCCC3)C3CCCCC3)n2)cc1` (as salt: hydrochloride) [Example 295, (S)-1-cyclohexyl-N-(cyclohexylmethyl)-1-[4-(4-fluorophenyl)-1H-imidazol-2-yl]methanamine]: 190 to 192 °C; for `CC[C@H](NC(=O)OC(C)(C)C)c1nc(-c2ccccc2)c(-c2ccccc2)[nH]1` [Example 197, tert-butyl (1S)-1-(4,5-diphenyl-1H-imidazol-2-yl)propylcarbamate]: 136 to 138 °C.
In turn, `CCCCCCC(N)c1nc(-c2ccc(-c3ccccc3)cc2)c[nH]1` (racemic) (as salt: hydrochloride) [Example 188, (R,S)-1-(4-[1,1′-biphenyl]-4-yl-1H-imidazol-2-yl)-heptanamine] showed a melting point of 182 to 184 °C.
Compound `CCCCOC(=O)NCCc1nc(-c2ccc(-c3ccc(C(F)(F)F)cc3)cc2)c[nH]1` [Example 452, butyl 2-{4-[41-(trifluoromethyl)-1,1′-biphenyl-4-yl]-1H-imidazol-2-yl}ethylcarbamate] had a melting point of 168.5 °C.
As for `CC(C)[C@@H](NC1CCCCC1)c1nc(-c2ccc(F)cc2)c[nH]1` [Example 276, N-{(1R)-1-[4-(4-fluorophenyl)-1H-imidazol-2-yl]-2-methylpropyl}-cyclohexanamine], the figure is 224 to 226 °C.
As for `CC(C)CCCC(NC1CCCCC1)c1nc(-c2cccc(Br)c2)c[nH]1` (stereo not shown) [Example 37, N-{1-[4-(3-bromophenyl)-1H-imidazol-2-yl]-5-methylhexyl}-N-cyclohexylamine], the figure is 236 to 238 °C.
As for `CCCCCCC(NC1CCCCC1)c1nc(C2CCCCC2)c[nH]1` (stereo not shown) [Example 36, N-[1-(4-cyclohexyl-1H-imidazol-2-yl)heptyl]cyclohexanamine], the figure is 172 to 174 °C; as for `NCCc1nc(-c2ccc(-c3ccccc3)cc2)c[nH]1` (as salt: hydrochloride) [Example 161, 2-(4-[1,1′-biphenyl]4-yl-1H-imidazol-2-yl)ethanamine], 228 to 230 °C; as for `NCc1nc(-c2ccccc2)c[nH]1` (as salt: hydrochloride) [Example 51, (4-phenyl-1H-imidazol-2-yl)methanamine], 228 to 230 °C.
With `NCc1nc(-c2ccccc2)cn1Cc1ccccc1` (as salt: hydrochloride) [Example 107, (1-benzyl-4-phenyl-1H-imidazol-2-yl)methanamine], the melting point fell in the range of 248 to 250 °C.
As for `CCCCCCN(Cc1ccccc1)Cc1nc(-c2ccc(-c3ccccc3)cc2)c[nH]1` [Example 41, N-benzyl-N-[(4-[1,1′-biphenyl]-4-yl-1H-imidazol-2-yl)methyl]-1-hexanamine], the figure is 120 to 122 °C.
The same measure for `CCCCOC(=O)NCCc1nc(-c2ccc(CCC)cc2)c[nH]1` [Example 449, butyl 2-[4-(4-propylphenyl)-1H-imidazol-2-yl]ethylcarbamate]: 83.2 °C.
As for `CCCCOC(=O)N[C@@H](C)c1nc(-c2ccc(-c3ccccc3)cc2)c[nH]1` [Example 241, 4-(2-{(1S)-1-[(butoxycarbonyl)amino]ethyl}-1H-imidazol-4-yl)-1,1′-biphenyl], the figure is 118 to 122 °C; as for `CC(C)N[C@H](c1nc(-c2ccc(F)cc2)c[nH]1)C1CCCCC1` [Example 261, N-{(S)-cyclohexyl[4-(4-fluorophenyl)-1H-imidazol-2-yl]methyl}-2-propanamine], 210 to 212 °C; as for `CN(Cc1ccccc1)Cc1nc(-c2ccc(-c3ccccc3)cc2)c[nH]1` [Example 42, N-benzyl(4-[1,1′-biphenyl]-4-yl-1H-imidazol-2-yl)-N-methylmethanamine], 106 to 108 °C.
In turn, `CCCCC(NC(=O)OC(C)(C)C)c1nc(-c2ccccc2)c[nH]1` (racemic) [Example 174, tert-butyl (R,S)-1-(4-phenyl-1H-imidazol-2-yl)pentylcarbamate] came in with a melting point of 126 °C.
The same measure for `CC(C)(C)c1ccc(-c2c[nH]c(CCNC(=O)OCC3CCCCC3)n2)cc1` [Example 302, cyclohexylmethyl 2-[4-(4-tert-butylphenyl)-1H-imidazol-2-yl]ethylcarbamate]: 104 to 106 °C; for `CCCCCCN[C@@H](Cc1c[nH]c2ccccc12)c1nc(-c2ccccc2)c[nH]1` (as salt: hydrochloride) [Example 53, N-[(1S)-2-(1H-indol-3-yl)-1-(4-phenyl-1H-imidazol-2-yl)ethyl]-1-hexanamine]: 132 to 134 °C; for `Cc1[nH]c(CN(C)C(=O)OC(C)(C)C)nc1-c1ccccc1` [Example 153, tert-butyl methyl[(5-methyl-4-phenyl-1H-imidazol-2-yl)methyl]carbamate]: 70 to 72 °C.
As for `c1ccc(CN[C@H](CC2CCCCC2)c2nc(-c3ccc(-c4ccccc4)cc3)c[nH]2)cc1` [Example 169, (1R)-N-benzyl-1-(4-[1,1′-biphenyl]-4-yl-1H-imidazol-2-yl)-2-cyclohexylethanamine], the figure is 233 to 238 °C.
